Source: PubChem BioAssay AID1996
≈ marks a conversion by molar mass, not a printed value.

conditions: buffer; pH 7.4; 200.0 µM

First: N#CC(C#N)=Cc1cccnc1
Second: COc1cccc(-c2cc(-c3cccnc3)c(C#N)c(N)n2)c1
The solubility kinetic of the first is 28-fold higher: 19.5 µg/mL (≈ 126 µM) for the first, 0.7 µg/mL (≈ 2.32 µM) for the second.

Going from CCOC(=O)c1c(C)[n+]([O-])c2ccc3c(non3O)c12 to Cc1cc(C)n2nc(C(=O)OCC(=O)c3ccccc3)nc2n1, the solubility kinetic rises from 8.7 µg/mL (≈ 31.4 µM) to > 46.5 µg/mL.

Cn1c(C(=O)N2CCOCC2)cc2c(=O)n3ccccc3nc21 and Cc1cc(OCC(=O)N2CCOCC2)ccc1[N+](=O)[O-] cannot be ordered by solubility kinetic: > 46.8 µg/mL for the first, > 42 µg/mL for the second.

CCCN(C(=O)CSc1ncccn1)C1CCS(=O)(=O)C1 (centres undefined) and CCOC(=O)NC(=O)CSc1ccc(S(=O)(=O)N2CCCCC2)cn1 cannot be ordered by solubility kinetic: > 49.4 µg/mL for the first, > 58.1 µg/mL for the second.

Compared with CN1CCN(C(=O)c2ccc(Cl)cc2)CC1, O=C(/C=C/c1ccccc1F)N1CCN(c2ccccn2)CC1 is lower in solubility kinetic: > 35.8 µg/mL for the first, 35.8 µg/mL (≈ 115 µM) for the second.

Compared with CC(=O)c1cn(-c2ccc([N+](=O)[O-])cc2)c(=O)n(C)c1=O, COc1ccc(C(=O)Nc2cc([N+](=O)[O-])ccc2N2CCCC2)cc1 is lower in solubility kinetic: > 43.4 µg/mL for the first, 2.6 µg/mL (≈ 7.62 µM) for the second.

CCCC(=O)Nc1cc(C)c(NC(=O)c2ccco2)cn1 and CCCNC(=O)Nc1cccc(C(=O)OC)c1 cannot be ordered by solubility kinetic: 42.8 µg/mL (≈ 149 µM) for the first, > 35.4 µg/mL for the second.

Going from Cc1ccc(/C=C2\C(=O)NC(=O)N2C)o1 to O=C1CC(=O)N(Cc2ccccc2)C(=S)N1, the solubility kinetic rises from 21.4 µg/mL (≈ 104 µM) to > 35.1 µg/mL.

Cc1ccc(C(=O)NC2CCC(C)CC2)s1 (centres undefined) and COc1ccc2oc(C(=O)OCC(=O)NC3CC3)c(C)c2c1 are within 1.5-fold of each other in solubility kinetic: 10.2 µg/mL (≈ 43 µM) for the first, 10.3 µg/mL (≈ 34 µM) for the second.

First: Cc1cccc(N2C(=O)CN(Cc3cccs3)C2=S)c1
Second: Cc1cccc(-n2cc(-c3ccccc3)[nH]c2=S)c1
The solubility kinetic of the first is 1.9-fold lower: 4.6 µg/mL (≈ 15.2 µM) for the first, 8.7 µg/mL (≈ 32.7 µM) for the second.

CCN1C(=O)CCC(C(=O)O)C1c1ccc(OC)cc1 (centres undefined) and COc1ccc(N2CCN(CC(=O)NC(C)c3ccccc3)CC2)cc1 (centres undefined) cannot be ordered by solubility kinetic: > 41.6 µg/mL for the first, 45.1 µg/mL (≈ 128 µM) for the second.

Going from Cc1nc(N2CCN(C)CC2)c2c3c(sc2n1)CCCC3 to Cc1ccc(N2CCN(S(=O)(=O)N3CCCCC3)CC2)cc1C, the solubility kinetic falls from 41.4 µg/mL (≈ 137 µM) to 1.8 µg/mL (≈ 5.33 µM) (23-fold).

Compared with COc1ccc(/C=C/C(=O)NCCc2nc3ccccc3[nH]2)cc1, COc1ccc(NC(=O)CCc2nc3ccccc3[nH]2)cc1 is 1.9-fold lower in solubility kinetic: 9.9 µg/mL (≈ 30.8 µM) for the first, 5.3 µg/mL (≈ 17.9 µM) for the second.

CC1CN(C(=O)COC(=O)c2c(Cl)cccc2Cl)CC(C)O1 (centres undefined) and COC(=O)CC1C(=O)NCCN1C(=O)c1c(F)cccc1F (centres undefined) cannot be ordered by solubility kinetic: 49.5 µg/mL (≈ 143 µM) for the first, > 46.8 µg/mL for the second.

Going from CC(C)(C)NCC(O)COc1cccc2c1CC(O)C(O)C2 (centres undefined) to CCOc1ncccc1C(=O)OC(C)C(=O)Nc1ccc(N2CCOCC2)cc1 (centres undefined), the solubility kinetic falls from > 46.4 µg/mL to 27.5 µg/mL (≈ 68.8 µM).

Compared with Fc1ccc(Oc2nc(-c3ccccn3)nc3ccccc23)cc1, O=C(COc1ccc(Nc2ccccc2)cc1)Nc1ccncc1 is 1.9-fold lower in solubility kinetic: 17.3 µg/mL (≈ 54.5 µM) for the first, 9.2 µg/mL (≈ 28.8 µM) for the second.

CC(=O)N1CCN(CC(=O)Nc2ccc(C)c(F)c2)CC1.Cl and Cc1ccc(C)c2sc(NC(=O)CN3C(=O)CCC3=O)nc12 are within 1.5-fold of each other in solubility kinetic: 46.8 µg/mL for the first, 45.5 µg/mL (≈ 143 µM) for the second.

Going from Cc1cc(=O)oc2cc(Oc3ncccc3[N+](=O)[O-])ccc12 to COc1ccc2c(C)nc(Nc3nc(-c4ccccc4)cc(=O)[nH]3)nc2c1, the solubility kinetic falls from 2 µg/mL (≈ 6.71 µM) to < 0.2 µg/mL.

Compared with COC(=O)c1ccc(-c2noc(CN(C)CC3CCCCO3)n2)cc1 (centres undefined), CCOC(=O)c1ccc(NC(=O)N2CCc3ccccc3C2)cc1 is lower in solubility kinetic: > 51.8 µg/mL for the first, 19.2 µg/mL (≈ 59.2 µM) for the second.

Br.Cn1ccnc1SCC(=O)c1ccc(O)cc1 and Cn1ccnc1SC(C(=O)O)c1ccccc1 (centres undefined) cannot be ordered by solubility kinetic: > 49.4 µg/mL for the first, > 37.2 µg/mL for the second.

First: O=C(O)c1ccc2c(c1)C(=O)N(c1ccccc1-c1ccccc1)C2=O
Second: O=C(CN1C(=O)C(=O)c2ccccc21)c1ccc(Cl)cc1
The solubility kinetic of the first is higher: > 51.5 µg/mL for the first, 1.9 µg/mL (≈ 6.34 µM) for the second.

Compared with CCOC(=O)CNC(=S)SC, CCOc1ccc(OCCCC(=O)NCCOc2ccccc2OC)cc1 is higher in solubility kinetic: 21.8 µg/mL (≈ 113 µM) for the first, > 56 µg/mL for the second.

Going from CCC(C)Nc1nc2c(c(=O)[nH]c(=O)n2C)n1CCCc1ccccc1 (centres undefined) to COCCNC(=O)Cn1nc(-c2ccccc2F)ccc1=O, the solubility kinetic rises from 36.9 µg/mL (≈ 104 µM) to > 45.8 µg/mL.

Going from Cc1ccccc1NCc1ccc([N+](=O)[O-])s1 to O=C(NCc1ccco1)c1ccc(Cl)cc1[N+](=O)[O-], the solubility kinetic rises from 13.7 µg/mL (≈ 55.2 µM) to > 42.1 µg/mL.

Going from COc1ccc(Cl)cc1NS(=O)(=O)c1cccc(C(=O)NC2CC2)c1 to COc1cccc(C(=S)N2CCOCC2)c1OS(=O)(=O)c1ccc(Cl)cc1, the solubility kinetic falls from > 57.1 µg/mL to 3.3 µg/mL (≈ 7.71 µM).

First: O=C1CN(C(=O)COC(=O)[C@@H]2CC(O)CN2S(=O)(=O)c2ccc(Cl)cc2)c2ccccc2N1 (some centres undefined)
Second: CCC(=O)c1cn(CC(=O)Nc2c(C)cccc2C)c2ccccc12
The solubility kinetic of the first is higher: > 74.1 µg/mL for the first, < 0.4 µg/mL for the second.

CCCOc1ccc(S(=O)(=O)N2CCOCC2)cc1[N+](=O)[O-] and O=[N+]([O-])c1cc(/C=N/N2CCOCC2)cs1 cannot be ordered by solubility kinetic: > 49.6 µg/mL for the first, > 36.2 µg/mL for the second.

Nc1nnc(SCC(=O)NC2CCCC2)s1 and CCCC1(CCC)NC(=O)N(CC(=O)Nc2ccc3c(c2)OCCO3)C1=O cannot be ordered by solubility kinetic: > 38.8 µg/mL for the first, > 56.3 µg/mL for the second.

C#CCn1c(-c2cccs2)nc2ccccc21 and CCc1nccn1Cc1cc(C=O)ccc1OC.Cl cannot be ordered by solubility kinetic: > 35.7 µg/mL for the first, > 42.1 µg/mL for the second.

In the case of COc1cccc2c1Oc1cc([N+](=O)[O-])cc(N(C)C(C)=O)c1C=C2, the solubility kinetic is reported as 38.2 µg/mL (≈ 112 µM).
